Measurements taken from paper PMC7565640 (Journal of Virology, 2020).
Values joined by “and” are separate entries in the source; they are usually repeats but may differ in a detail not shown here. Identical values can stand only once. Counter-ions that a name gives are not always drawn.

Legend:
SARS-CoV-2 [1] = assay type: cell-based; conditions: read-out: IC50 (avg)
MERS-CoV spike = conditions: cited from earlier work
SARS-CoV spike = conditions: cited from earlier work
[2] = test system: clathrin-mediated endocytosis; conditions: cited from earlier work
SARS-CoV-2 [3] = assay type: cell-based
Vero E6 cells = conditions: read-out: CC50 (avg); 3 days
SARS-CoV-2 [4] = assay type: cell-based; remark: listed apart in the source

`CCN(CC)CCOc1ccc(C(O)(Cc2ccc(Cl)cc2)c2ccc(C)cc2)cc1` (centres unmarked) [Triparanol] gave an IC50 (SARS-CoV-2 [1]) of 6.41 µM.
With `OC(c1cc(C(F)(F)F)nc2c(C(F)(F)F)cccc12)C1CCCCN1` (centres unmarked) [Mefloquine hydrochloride] the IC50 (SARS-CoV-2 [1]) was 8.06 µM.
Compound `CC(CN1c2ccccc2Sc2ccccc21)N(C)C` (centres unmarked) [Promethazine hydrochloride] has an IC50 (SARS-CoV-2 [1]) of 10.4 µM.
For `Cc1ccc(NC(=O)c2ccc(CN3CCN(C)CC3)cc2)cc1Nc1nccc(-c2cccnc2)n1` [Imatinib mesylate], the MERS-CoV spike-mediated entry (MERS-CoV spike) is listed as “inhibits” and the SARS-CoV spike-mediated entry (SARS-CoV spike) is listed as “inhibits”.
In the case of `CN(C)CCCN1c2ccccc2Sc2ccc(Cl)cc21` [Chlorpromazine hydrochloride], the clathrin-mediated endocytosis [2] is listed as “inhibit”, the “infectious viral particle production of SARS-CoV-2 (TCID50)” value (“infectious viral particle production” for short) (SARS-CoV-2 [3]) is listed as “can inhibit” and the IC50 (SARS-CoV-2 [1]) is listed as 4.03 µM.
For `CCN(CC)Cc1cc(Nc2ccnc3cc(Cl)ccc23)ccc1O` [Amodiaquine hydrochloride], the CC50 (Vero E6 cells) was greater than 38.6 µM.
In the case of `O=C1NCN(c2ccccc2)C12CCN(CCCC(c1ccc(F)cc1)c1ccc(F)cc1)CC2` [Fluspirilene], the IC50 (SARS-CoV-2 [1]) is reported as 5.32 µM.
With `CCN(CC)CCCC(C)Nc1ccnc2cc(Cl)ccc12` (centres unmarked) [Chloroquine phosphate] the “production of SARS-CoV-2 N and RdRp mRNA” value (SARS-CoV-2 [4]) was “inhibit production”, the “infectious viral particle production” value (SARS-CoV-2 [3]) was “can inhibit” and the IC50 (SARS-CoV-2 [1]) was 46.8 µM.
`CC(C)N1CCN(c2ccc(OCC3COC(Cn4cncn4)(c4ccc(Cl)cc4Cl)O3)cc2)CC1` (centres unmarked) [Terconazole] gave an IC50 (SARS-CoV-2 [1]) of 16.1 µM.
Compound `CCSc1ccc2c(c1)N(CCCN1CCN(C)CC1)c1ccccc1S2` [Thiethylperazine maleate] has an IC50 (SARS-CoV-2 [1]) of 8.02 µM.
In the case of `CCN(CC)Cc1cc(Nc2ccnc3cc(Cl)ccc23)ccc1O` [Amodiaquine dihydrochloride dihydrate], the IC50 (SARS-CoV-2 [1]) is reported as 2.59 µM and 4.94 µM.
In the case of `CCN(CCO)CCCC(C)Nc1ccnc2cc(Cl)ccc12` (centres unmarked) [Hydroxychloroquine sulfate], the “production of SARS-CoV-2 N and RdRp mRNA” value (SARS-CoV-2 [4]) is reported as “inhibit production”, the “infectious viral particle production” value (SARS-CoV-2 [3]) is reported as “can inhibit” and the “time-of-addition: inhibitory activity on infectious-virus production” value (SARS-CoV-2 [3]; 24 h) is reported as “some reduction in inhibitory activity”. For the same compound, the IC50 (SARS-CoV-2 [1]) was 11.2 µM.
